Measurements reported in ChEMBL document CHEMBL3046319, “PCR-RFLP detection of the E198A mutation conferring resistance to benzimidazoles in field isolates of Monilinia laxa from Greece” (Crop Prot, 2012).
≈ marks a conversion by molar mass, not a printed value. Calls of active or inactive are those of the source. The rule behind the calls is not given here.

Assays:
Monilinia laxa [1] = test: Fungicidal activity against Monilinia laxa isolate MLA1 assessed as reduction in mycelial growth rate at 25 degC after 4 days; format: functional, organism-based; settings: isolate MLA1, 96 h
Monilinia laxa [2] = test: Fungicidal activity against Monilinia laxa isolate MLK6 assessed as reduction in mycelial growth rate at 1 to 10 ug/ml at 31 degC after 5 days; format: functional, organism-based
Monilinia laxa [3] = test: Fungicidal activity against Monilinia laxa isolate MLKS2 assessed as reduction in mycelial growth rate at 1 to 10 ug/ml at 31 degC after 5 days; format: functional, organism-based
Monilinia laxa [4] = test: Fungicidal activity against Monilinia laxa isolate MLG1 assessed as reduction in mycelial growth rate at 1 to 10 ug/ml at 31 degC after 5 days; format: functional, organism-based
Monilinia laxa [5] = test: Fungicidal activity against Monilinia laxa isolate MLC5 assessed as reduction in mycelial growth rate at 1 to 10 ug/ml at 31 degC after 5 days; format: functional, organism-based
Monilinia laxa [6] = test: Fungicidal activity against Monilinia laxa isolate MLC3 assessed as reduction in mycelial growth rate at 1 to 10 ug/ml at 31 degC after 5 days; format: functional, organism-based
Monilinia laxa [7] = test: Fungicidal activity against Monilinia laxa isolate MLBO8 assessed as reduction in mycelial growth rate at 1 to 10 ug/ml at 31 degC after 5 days; format: functional, organism-based
Monilinia laxa [8] = test: Fungicidal activity against Monilinia laxa isolate MLBO7 assessed as reduction in mycelial growth rate at 1 to 10 ug/ml at 31 degC after 5 days; format: functional, organism-based
Monilinia laxa [9] = test: Fungicidal activity against Monilinia laxa isolate MLBO5 assessed as mean number of conidia produced in the colony at 25 degC after 12 days by haemocytometer; format: functional
Monilinia laxa [10] = test: Fungicidal activity against Monilinia laxa isolate MLX1 assessed as mean mycelial colony diameter at 25 degC after 4 days; format: functional
Monilinia laxa [11] = test: Fungicidal activity against Monilinia laxa isolate MLK12 assessed as mean mycelial colony diameter at 25 degC after 4 days; format: functional
Monilinia laxa [12] = test: Fungicidal activity against Monilinia laxa isolate KX5 assessed as reduction in mycelial growth rate at 1 to 10 ug/ml at 28 degC after 8 days; format: functional, organism-based
Monilinia laxa [13] = test: Fungicidal activity against Monilinia laxa isolate MLX5 assessed as reduction in mycelial growth rate at 1 to 10 ug/ml at 28 degC after 8 days; format: functional, organism-based
Monilinia laxa [14] = test: Fungicidal activity against Monilinia laxa isolate MLK6 assessed as reduction in mycelial growth rate at 1 to 10 ug/ml at 28 degC after 8 days; format: functional, organism-based
Monilinia laxa [15] = test: Fungicidal activity against Monilinia laxa isolate MLK2 assessed as reduction in mycelial growth rate at 1 to 10 ug/ml at 28 degC after 8 days; format: functional, organism-based
Monilinia laxa [16] = test: Fungicidal activity against Monilinia laxa isolate MLG6 assessed as reduction in mycelial growth rate at 25 degC after 4 days; format: functional, organism-based; settings: isolate MLG6, 96 h
Monilinia laxa [17] = test: Fungicidal activity against Monilinia laxa isolate MLC3 assessed as reduction in mycelial growth rate at 1 to 10 ug/ml at 28 degC after 8 days; format: functional, organism-based
Monilinia laxa [18] = test: Fungicidal activity against Monilinia laxa isolate MLC6 assessed as reduction in mycelial growth rate at 25 degC after 4 days; format: functional, organism-based; settings: isolate MLC6, 96 h
Monilinia laxa [19] = test: Fungicidal activity against Monilinia laxa isolate MLC5 assessed as reduction in mycelial growth rate at 25 degC after 4 days; format: functional, organism-based; settings: isolate MLC5, 96 h
Monilinia laxa [20] = test: Fungicidal activity against Monilinia laxa isolate MLC2 assessed as reduction in mycelial growth rate at 25 degC after 4 days; format: functional, organism-based; settings: isolate MLC2, 96 h
Monilinia laxa [21] = test: Fungicidal activity against Monilinia laxa isolate MLBO8 assessed as reduction in mycelial growth rate at 25 degC after 4 days; format: functional, organism-based; settings: isolate MLBO8, 96 h
Monilinia laxa [22] = test: Fungicidal activity against Monilinia laxa isolate MLBO5 assessed as reduction in mycelial growth rate at 25 degC after 4 days; format: functional, organism-based; settings: isolate MLBO5, 96 h
Monilinia laxa [23] = test: Fungicidal activity against Monilinia laxa isolate KX5 assessed as reduction in mycelial growth rate at 1 to 10 ug/ml at 25 to 28 degC; format: functional, organism-based
Monilinia laxa [24] = test: Fungicidal activity against Monilinia laxa isolate MLX3 assessed as reduction in mycelial growth rate at 1 to 10 ug/ml at 25 to 28 degC; format: functional, organism-based
Monilinia laxa [25] = test: Fungicidal activity against Monilinia laxa isolate MLK12 assessed as reduction in mycelial growth rate at 1 to 10 ug/ml at 25 to 28 degC; format: functional, organism-based
Monilinia laxa [26] = test: Fungicidal activity against Monilinia laxa isolate MLC2 assessed as reduction in mycelial growth rate at 1 to 10 ug/ml at 25 to 28 degC; format: functional, organism-based
Monilinia laxa [27] = test: Fungicidal activity against Monilinia laxa isolate MLBO2 assessed as mycelial growth at 1 ug/ml at 25 degC after 4 days; format: functional
Monilinia laxa [28] = test: Fungicidal activity against Monilinia laxa isolate MLA1 assessed as mycelial growth at 1 ug/ml at 25 degC after 4 days; format: functional
Monilinia laxa [29] = test: Fungicidal activity against Monilinia laxa isolate KX2 assessed as reduction in mycelial growth rate at 1 to 10 ug/ml at 31 degC after 5 days; format: functional, organism-based
Monilinia laxa [30] = test: Fungicidal activity against Monilinia laxa isolate KX1 assessed as reduction in mycelial growth rate at 1 to 10 ug/ml at 31 degC after 5 days; format: functional, organism-based
Monilinia laxa [31] = test: Fungicidal activity against Monilinia laxa isolate MLBO5 assessed as virulence in prune fruits assessed as virulence treated 10 min prior to mycelial inoculation at 24 degC after 10 days relative to isolate MLX1by pathogenicity bioassay; format: functional
Monilinia laxa [32] = test: Fungicidal activity against Monilinia laxa isolate MLA1 assessed as virulence in prune fruits assessed as virulence treated 10 min prior to mycelial inoculation at 24 degC after 10 days relative to isolate MLX1by pathogenicity bioassay; format: functional
Monilinia laxa [33] = test: Fungicidal activity against Monilinia laxa isolate MLX1 assessed as mean number of conidia produced in the colony at 25 degC after 12 days by haemocytometer; format: functional
Monilinia laxa [34] = test: Fungicidal activity against Monilinia laxa isolate MLBO1 assessed as reduction in mycelial growth rate at 1 to 10 ug/ml at 31 degC after 5 days; format: functional, organism-based
Monilinia laxa [35] = test: Fungicidal activity against Monilinia laxa isolate KX1 assessed as reduction in mycelial growth rate at 25 degC after 4 days; format: functional, organism-based; settings: isolate KX1, 96 h
Monilinia laxa [36] = test: Fungicidal activity against Monilinia laxa isolate MLX1 assessed as reduction in mycelial growth rate at 25 degC after 4 days; format: functional, organism-based; settings: isolate MLX1, 96 h
Monilinia laxa [37] = test: Fungicidal activity against Monilinia laxa isolate MLP7 assessed as reduction in mycelial growth rate at 25 degC after 4 days; format: functional, organism-based; settings: isolate MLP7, 96 h
Monilinia laxa [38] = test: Fungicidal activity against Monilinia laxa isolate MLP4 assessed as reduction in mycelial growth rate at 25 degC after 4 days; format: functional, organism-based; settings: isolate MLP4, 96 h
Monilinia laxa [39] = test: Fungicidal activity against Monilinia laxa isolate MLP2 assessed as reduction in mycelial growth rate at 25 degC after 4 days; format: functional, organism-based; settings: isolate MLP2, 96 h
Monilinia laxa [40] = test: Fungicidal activity against Monilinia laxa isolate MLK9 assessed as reduction in mycelial growth rate at 25 degC after 4 days; format: functional, organism-based; settings: isolate MLK9, 96 h
Monilinia laxa [41] = test: Fungicidal activity against Monilinia laxa isolate MLK6 assessed as reduction in mycelial growth rate at 25 degC after 4 days; format: functional, organism-based; settings: isolate MLK6, 96 h
Monilinia laxa [42] = test: Fungicidal activity against Monilinia laxa isolate MLK4 assessed as reduction in mycelial growth rate at 25 degC after 4 days; format: functional, organism-based; settings: isolate MLK4, 96 h

## COC(=O)Nc1nc2ccccc2[nH]1 [CARBENDAZIM]
Monilinia laxa [1]
  EC50: 0.06 µg/mL (≈ 0.314 µM)
Monilinia laxa [2]
  inhibition: Active
Monilinia laxa [3]
  inhibition: Active
Monilinia laxa [4]
  inhibition: Active
Monilinia laxa [5]
  inhibition: Active
Monilinia laxa [6]
  inhibition: Active
Monilinia laxa [7]
  inhibition: Active
Monilinia laxa [8]
  inhibition: Active
Monilinia laxa [9]
  Activity: 3.92 /cm2
Monilinia laxa [10]
  Activity: 31.25 mm
Monilinia laxa [11]
  Activity: 31 mm
Monilinia laxa [12]
  inhibition: inactive
Monilinia laxa [13]
  inhibition: inactive
Monilinia laxa [14]
  inhibition: inactive
Monilinia laxa [15]
  inhibition: inactive
Monilinia laxa [16]
  EC50: 0.12 µg/mL (≈ 0.628 µM)
Monilinia laxa [17]
  inhibition: inactive
Monilinia laxa [18]
  EC50: 0.12 µg/mL (≈ 0.628 µM)
Monilinia laxa [19]
  EC50: 0.11 µg/mL (≈ 0.575 µM)
Monilinia laxa [20]
  EC50: > 50 µg/mL
Monilinia laxa [21]
  EC50: 0.06 µg/mL (≈ 0.314 µM)
Monilinia laxa [22]
  EC50: 0.07 µg/mL (≈ 0.366 µM)
Monilinia laxa [23]
  inhibition: inactive
Monilinia laxa [24]
  inhibition: inactive
Monilinia laxa [25]
  inhibition: inactive
Monilinia laxa [26]
  inhibition: inactive
Monilinia laxa [27]
  Activity: 0%
Monilinia laxa [28]
  Activity: 0%
Monilinia laxa [29]
  inhibition: Active
Monilinia laxa [30]
  inhibition: Active
Monilinia laxa [31]
  Activity: 100%
Monilinia laxa [32]
  Activity: 90.33%
Monilinia laxa [33]
  Activity: 4 /cm2
Monilinia laxa [34]
  inhibition: Active
Monilinia laxa [35]
  EC50: 0.06 µg/mL (≈ 0.314 µM)
Monilinia laxa [36]
  EC50: > 50 µg/mL
Monilinia laxa [37]
  EC50: > 50 µg/mL
Monilinia laxa [38]
  EC50: > 50 µg/mL
Monilinia laxa [39]
  EC50: 0.06 µg/mL (≈ 0.314 µM)
Monilinia laxa [40]
  EC50: 0.08 µg/mL (≈ 0.418 µM)
Monilinia laxa [41]
  EC50: > 50 µg/mL
Monilinia laxa [42]
  EC50: > 50 µg/mL
